One experiment deals with ROR-γt+ Treg cells. The conditions noted are these: mouse, in vivo.
Another experiment deals with Il4ra^F709 mice. Put plainly: Food allergy model: OVA/SEB oral sensitization and OVA challenge of treated Il4ra^F709 mice (core body temperature). Format: in vivo, mouse. The conditions noted are these: 100 mg/kg i.p. once weekly, OVA/SEB 8 weeks.

Structures can show the parent of a compound that is named as a salt.

For the compound `O=Cc1c[nH]c2ccccc12` [CA, indol-3-carboxaldehyde], the “ROR-γt+ staining in CD4+Foxp3+ Treg cells vs sham treatment” value in the experiment with ROR-γt+ Treg cells is on record as “statistically significant increase”.
For the compound `O=S(=O)(O)Oc1c[nH]c2ccccc12` [I3S, Indoxyl sulfate], in the experiment on ROR-γt+ Treg cells (ip, 100 mg/kg), the “GATA3+ Helios+ gut Treg cells” value was “statistically significant decrease”, the “GATA3+ Helios− gut Treg cells” value was “statistically significant decrease”, the “GATA3+ gut Treg cells” value is recorded as “statistically significant decrease” and the “Gut ROR-γt+ Treg cells (expansion)” value is “expanded gut ROR-γt^+ Treg cells”. In the experiment with ROR-γt+ Treg cells (ip, 100 mg/kg), the “ROR-γt+ Helios+ gut Treg cells” value is recorded as “statistically significant increase”, the “ROR-γt+ Helios− gut Treg cells” value is “statistically significant increase” and the “ROR-γt+ gut Treg cells” value is given as “statistically significant increase”. The “Protection against food allergy” value with Il4ra^F709 mice (OVA challenge) was “protected against food allergy”. Further, in the experiment on Il4ra^F709 mice (after OVA challenge), the “Core body temperature changes compared to control” value is “statistically significant increase”.
